Measurements taken from ChEMBL document CHEMBL1148555, “Macrocyclic peptidomimetic inhibitors of beta-secretase (BACE): first X-ray structure of a macrocyclic peptidomimetic-BACE complex” (Bioorg Med Chem Lett, 2006).

How the values were obtained:
[1] = target: Beta-secretase 1 (Homo sapiens, UniProt P56817); assay: Inhibition of recombinant human BACE1 in FRET assay
[2] = Inhibition of Abeta peptide production in HEK293 cells overexpressing APP751swe; assay type: functional, cell-based; settings: Homo sapiens

Beta-secretase 1, sequence (P56817 whole entry): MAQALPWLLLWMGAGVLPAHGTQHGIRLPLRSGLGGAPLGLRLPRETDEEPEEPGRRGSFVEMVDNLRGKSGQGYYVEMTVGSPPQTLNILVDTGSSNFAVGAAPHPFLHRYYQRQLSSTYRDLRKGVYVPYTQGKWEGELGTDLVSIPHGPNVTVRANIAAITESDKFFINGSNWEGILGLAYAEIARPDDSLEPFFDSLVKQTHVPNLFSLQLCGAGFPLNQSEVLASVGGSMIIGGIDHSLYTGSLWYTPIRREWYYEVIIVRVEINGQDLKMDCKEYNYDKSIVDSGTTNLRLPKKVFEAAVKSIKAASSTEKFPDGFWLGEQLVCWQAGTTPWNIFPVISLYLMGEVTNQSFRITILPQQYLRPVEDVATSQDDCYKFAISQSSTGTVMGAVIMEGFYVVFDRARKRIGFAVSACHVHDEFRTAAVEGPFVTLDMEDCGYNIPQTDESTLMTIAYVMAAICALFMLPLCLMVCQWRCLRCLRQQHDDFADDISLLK

CC(C)[C@H](NC(=O)CC[C@H](O)[C@@H]1CCCCCC[C@H](NC(=O)OC(C)(C)C)C(=O)N[C@@H](C)C(=O)N1)C(=O)NCc1ccccc1
IC50 [1]: 9.7 µM
IC50 [2]: > 100 µM

CC(C)[C@H](NC(=O)OC(C)(C)C)C(=O)N[C@@H](C)C(=O)N[C@@H](Cc1ccccc1)[C@@H](O)C[C@@H](C)C(=O)N[C@H](C(=O)NCc1ccncc1)C(C)C
IC50 [2]: 2.83 µM
